Measured values taken from paper PMC9469500, “Targeting an Initiator Allergen Provides Durable and Expansive Protection against House Dust Mite Allergy” (ACS Pharmacology & Translational Science, 2022).
Where a name gives a salt, the structure may show the parent alone.

Experiments:
[1] = Plasma protein binding (human); format: in vitro ADME
Experimental: Plasma Protein Binding Assay
Plasma protein binding (PPB) was determined using Rapid Equilibrium Dialysis chambers with 8 kDa cut-off inserts (Fisher Scientific UK Ltd, Leicestershire, UK). Rat (Sprague Dawley strain) plasma EDTA K2 (pooled, mixed sex, SeraLab, West Sussex, UK) was centrifuged (13,000 x g, 10 min) to remove precipitates before addition of compounds (initial concentration 5 µM). Concentrations were determined by liquid chromatography-tandem mass spectrometry (LC-MS-MS) (AB Sciex 3200 QTrap) after 4 h incubation at 37 °C with binding being calculated from the concentration of compound in each chamber. Assays were performed in replicate and the data expressed as mean ± s.e.
Cellular Stability of Compounds […]
Kaighn’s modification of Ham’s F12 medium (F12K). Cells were prepared for assay by washing 3 times with serum-free F12K. NR8383 Airway macrophages were grown in suspension culture in F12K, collected by centrifugation, washed in serum-free medium and aliquoted into test plates (1.4 x 10^6 cells/well). Both cell lines were treated with ADI compounds (100 nM) in serum -free F12K in a 5% CO 2 environment at 37 […]
n-Octanol (0.7 mL), pre -saturated with 10 mM PBS, pH7.4, was added to test compound (~1 mg) in a 2 mL HPLC vial followed by PBS (0. 7 mL), which had been pre -saturated with n -octanol. […]

thermodynamic solubility = format: physicochemical; settings: thermodynamic from solid
unsensitized BN rats = test: HDM extract challenge in unsensitized (naive) BN rats, duration of protection; format: in vivo
rat hepatocytes = test: hepatocyte stability (rat); format: in vitro ADME
[2] = test system: rats sensitized to the HDM allergen extract; test: HDM extract challenge in rats sensitized to the HDM allergen extract (BAL cells and mediators); format: in vivo, BN rats; settings: single i.t. aerosol dose 2 h before (15 μg/kg compound 1, 46 μg/kg compound 2), BAL 48 h
From the text: Control animals received saline vehicle treatment.

human hepatocytes = test: hepatocyte stability (human); format: in vitro ADME
[3] = test system: rat airway epithelial cell line L2; test: Cellular stability in L2 cells; format: in vitro ADME; settings: 100 nM compound
Experimental: (§1) Cellular Stability of Compounds
(§2) The cellular stability of compounds in vitro was tested using rat airway epithelial cell line L2 and rat alveolar macrophage line NR8383 (ATCC©CRL-2192™). Assays were performed in replicate and the data expressed as mean ± s.e. mean. L2 cells were cultured to confluence in T25 flasks or 24 -well plates using Kaighn’s modification of Ham’s F12 medium (F12K). Cells were prepared for assay by washing 3 times with serum-free F12K. NR8383 Airway macrophages were grown in suspension culture in F12K, collected by centrifugation, washed in serum-free medium and aliquoted into test plates (1.4 x 10^6 cells/well). Both cell lines were treated with ADI compounds (100 nM) in serum -free F12K in a 5% CO 2 environment at 37 °C. Samples were removed for quantitative analysis by LC -MS-MS using appropriate multiple reaction monitoring transitions for each analyte. […]
(§3) n-Octanol (0.7 mL), pre -saturated with 10 mM PBS, pH7.4, was added to test compound (~1 mg) in a 2 mL HPLC vial followed by PBS (0. 7 mL), which had been pre -saturated with n -octanol. The mixture was shaken for 90 min before centrifugation for 10 min at 4,000 rpm. The upper organic layer (0.2 mL) and the aqueous layer (0.5 mL) were removed for analysis by LC-MS. Peak identity was confirmed by mass spectrometry and concentration assessed spectrophotometrically using a diode array detector. The log

[4] = Plasma protein binding (rat); format: in vitro ADME
Experimental: Plasma protein binding (PPB) was determined using Rapid Equilibrium Dialysis chambers with 8 kDa cut-off inserts (Fisher Scientific UK Ltd, Leicestershire, UK). Rat (Sprague Dawley strain) plasma EDTA K2 (pooled, mixed sex, SeraLab, West Sussex, UK) was centrifuged (13,000 x g, 10 min) to remove precipitates before addition of compounds (initial concentration 5 M). Concentrations were determined by liquid chromatography-tandem mass spectrometry (LC-MS-MS) (AB Sciex 3200 QTrap) after 4 h incubation at 37 °C with binding being calculated from the concentration of compound in each chamber. Assays were performed in replicate and the data expressed as mean ± s.e.

[5] = test system: rat alveolar macrophage line NR8383; test: Cellular stability in macrophages; format: in vitro ADME; settings: 100 nM compound
Experimental: as §1, §2, §3

plasma stability (human) = format: in vitro ADME
plasma stability (rat) = format: in vitro ADME
Pharmacokinetics in rats = settings: rat p.o.
Experimental: Soluble formulations were developed and verified by high performance liquid chromatography (HPLC)
1 mL/kg) and p.o. (5 mg/kg, 5 mL/kg) in non-fasted Sprague-Dawley rats (male, 200-300 g, 10-16 weeks
of age, groups of three animals per route per compound). Timed blood samples were taken after dosing
and plasma prepared for LC-MS-MS quantification of the test substance after inclusion of an internal
standard. A non -compartmental model in WinNonlin software was used to calculate pharmacokinetic

[6] = single i.t. dose (15 μg/kg compound 1, 46 μg/kg compound 2), BAL 48 h

For `CC(C)[C@H](NC(=O)[C@H](C)NC(=O)[C@@H](NC(=O)C1CC[N+](C)(C)CC1)C(C)(C)C)C(=O)C(=O)NCc1ccccc1` [Compound 2, 4-{(S)-1-[(S)-1-((S)-1-benzylaminooxalyl-2-methyl-propylcarbamoyl)-ethylcarbamoyl]-2,2-dimethyl-propylcarbamoyl}-1,1-dimethyl-piperidinium formate], the fraction unbound at 4 h, 5 µM [1] was 0.37, the solubility thermodynamic (thermodynamic solubility) was over 1600 µM and the neutrophil response (unsensitized BN rats; BAL performed 24 h after HDM extract challenge, dosed 2 h prior) was “clear inhibition”. For the same molecule, the “inhibition of BAL monocytes/macrophages (significance)” value (unsensitized BN rats; dosing 120 min prior to challenge, 46 μg/kg i.t., BAL 48 h) was “significant”, the “performance in vivo (maximum inhibition of the eosinophil response, Figure 5A)” value (unsensitized BN rats; focused library, durability of inhibition studies) was “performed well” and the “effects on BAL neutrophils” value (unsensitized BN rats; intervening pretreatment intervals, BAL 48 h) was “insignificant”. The “effect on BAL neutrophils (significance)” value (unsensitized BN rats; pretreatment 60 min, 46 μg/kg i.t., BAL 48 h) was “significant”, the “effect on BAL neutrophils (significance)” value (unsensitized BN rats; pretreatment 360 min, 46 μg/kg i.t., BAL 48 h) was “significant” and the “effects on BAL neutrophils” value (unsensitized BN rats; short or long pretreatment intervals, BAL 48 h) was “inhibitory”. The “effect on BAL monocytes/macrophages” value (unsensitized BN rats; shorter pretreatment times, BAL 48 h) was “modest inhibition”, the “effect on eosinophils with 6–8 h separation of dose and challenge” value (unsensitized BN rats; [6]) was “substantial inhibition” and the “time of administration before challenge giving peak effects on eosinophils” value (unsensitized BN rats; [6]) was 2 h. For the same molecule, the hepatocyte half-life (rat hepatocytes) was “∞ (rat); ∞ (human)”, the “changes in BAL cells after HDM challenge” value ([2]; HDM 10 (10 μg Der p 1) i.t. aerosol) was “attenuated” and the “BAL eosinophils after HDM challenge” value ([2]; HDM 10) was “eosinophil suppression”. The “BAL monocytes/macrophages after HDM challenge” value ([2]; HDM 10) was “No effects”, the “BAL neutrophil responses after HDM challenge” value ([2]; HDM 10) was “not significant” and the hepatocyte half-life (human hepatocytes) was “∞ (rat); ∞ (human)”. For the same molecule, the cell stability [3] was 100;100, the plasma protein binding [4] was 61% and the cell stability [5] was 100;100. The remaining at 2 h (plasma stability (human)) was 100%, the remaining at 2 h (plasma stability (rat)) was 100% and the half-life (Pharmacokinetics in rats; male, Sprague-Dawley, rat, plasma, po, 5 mg/kg, half-life, fed) was 18 min. The volume of distribution (Pharmacokinetics in rats) was 0.3 L/kg and the clearance (Pharmacokinetics in rats; fasted) was 19 (fasted) mL/min/kg.
